{
  "source": "the NIST ThermoML archive (doi:10.1016/j.jct.2015.10.017)",
  "key": {"[1]": {"details": "100 kPa, Liquid, Falling or rolling sphere viscometry"}, "[2]": {"test": "mn = molality of the nth substance listed, in mol/kg", "details": "100 kPa, Liquid; for viscosity: Falling or rolling sphere viscometry; for speed of sound: Frequency=3 MHz, Sing-around technique in a fixed-path interferometer; for mass density: Vibrating tube method"}},
  "note": "± gives the expanded uncertainty stated by the source.",
  "data": [
    {"compound": "O", "note": "[water]", "values": [
      {"measurement": "viscosity", "setting": "[1]; 288.15 K", "value": "1.043 ± 0.21", "unit": "mPa·s"},
      {"measurement": "viscosity", "setting": "[1]; 293.15 K", "value": "0.9312 ± 0.19", "unit": "mPa·s"},
      {"measurement": "viscosity", "setting": "[1]; 298.15 K", "value": "0.8319 ± 0.17", "unit": "mPa·s"},
      {"measurement": "viscosity", "setting": "[1]; 303.15 K", "value": "0.7981 ± 0.16", "unit": "mPa·s"},
      {"measurement": "viscosity", "setting": "[1]; 308.15 K", "value": "0.7202 ± 0.14", "unit": "mPa·s"}
    ]},
    {"compound": "O", "note": "[water] + CC(=O)NCC(=O)O", "values": [
      {"measurement": "viscosity", "setting": "[2]; 288.15 K, m2 = 0", "value": "1.043 ± 0.21", "unit": "mPa·s"},
      {"measurement": "viscosity", "setting": "[2]; 293.15 K, m2 = 0", "value": "0.9312 ± 0.19", "unit": "mPa·s"},
      {"measurement": "viscosity", "setting": "[2]; 298.15 K, m2 = 0", "value": "0.8319 ± 0.17", "unit": "mPa·s"},
      {"measurement": "viscosity", "setting": "[2]; 303.15 K, m2 = 0", "value": "0.7981 ± 0.16", "unit": "mPa·s"},
      {"measurement": "viscosity", "setting": "[2]; 308.15 K, m2 = 0", "value": "0.7202 ± 0.14", "unit": "mPa·s"}
    ]},
    {"compound": "CC(=O)NCC(=O)O", "note": "[N-acetylglycine] + O", "values": [
      {"measurement": "viscosity", "setting": "[2]; 288.15 K, m1 = 0.05", "value": "1.091 ± 0.22", "unit": "mPa·s"},
      {"measurement": "viscosity", "setting": "[2]; 288.15 K, m1 = 0.1", "value": "1.151 ± 0.23", "unit": "mPa·s"},
      {"measurement": "viscosity", "setting": "[2]; 288.15 K, m1 = 0.2", "value": "1.187 ± 0.24", "unit": "mPa·s"},
      {"measurement": "speed of sound", "setting": "[2]; 288.15 K, m1 = 0.05", "value": "1468.9 ± 10", "unit": "m/s"},
      {"measurement": "speed of sound", "setting": "[2]; 288.15 K, m1 = 0.1", "value": "1472.1 ± 10", "unit": "m/s"},
      {"measurement": "speed of sound", "setting": "[2]; 288.15 K, m1 = 0.2", "value": "1476.4 ± 10", "unit": "m/s"},
      {"measurement": "mass density", "setting": "[2]; 288.15 K, m1 = 0.05", "value": "1001.32 ± 10", "unit": "kg/m3"},
      {"measurement": "mass density", "setting": "[2]; 288.15 K, m1 = 0.1", "value": "1002.84 ± 10", "unit": "kg/m3"},
      {"measurement": "mass density", "setting": "[2]; 288.15 K, m1 = 0.2", "value": "1005.54 ± 10", "unit": "kg/m3"},
      {"measurement": "viscosity", "setting": "[2]; 293.15 K, m1 = 0.05", "value": "0.9664 ± 0.19", "unit": "mPa·s"},
      {"measurement": "viscosity", "setting": "[2]; 293.15 K, m1 = 0.1", "value": "1.019 ± 0.2", "unit": "mPa·s"},
      {"measurement": "viscosity", "setting": "[2]; 293.15 K, m1 = 0.2", "value": "1.048 ± 0.21", "unit": "mPa·s"},
      {"measurement": "speed of sound", "setting": "[2]; 293.15 K, m1 = 0.05", "value": "1484.8 ± 10", "unit": "m/s"},
      {"measurement": "speed of sound", "setting": "[2]; 293.15 K, m1 = 0.1", "value": "1486.7 ± 10", "unit": "m/s"},
      {"measurement": "speed of sound", "setting": "[2]; 293.15 K, m1 = 0.2", "value": "1491.2 ± 10", "unit": "m/s"},
      {"measurement": "mass density", "setting": "[2]; 293.15 K, m1 = 0.05", "value": "1000.04 ± 10", "unit": "kg/m3"},
      {"measurement": "mass density", "setting": "[2]; 293.15 K, m1 = 0.1", "value": "1001.89 ± 10", "unit": "kg/m3"},
      {"measurement": "mass density", "setting": "[2]; 293.15 K, m1 = 0.2", "value": "1004.84 ± 10", "unit": "kg/m3"},
      {"measurement": "viscosity", "setting": "[2]; 298.15 K, m1 = 0.05", "value": "0.863 ± 0.17", "unit": "mPa·s"},
      {"measurement": "viscosity", "setting": "[2]; 298.15 K, m1 = 0.1", "value": "0.9071 ± 0.18", "unit": "mPa·s"},
      {"measurement": "viscosity", "setting": "[2]; 298.15 K, m1 = 0.2", "value": "0.9357 ± 0.19", "unit": "mPa·s"},
      {"measurement": "speed of sound", "setting": "[2]; 298.15 K, m1 = 0.05", "value": "1499.6 ± 10", "unit": "m/s"},
      {"measurement": "speed of sound", "setting": "[2]; 298.15 K, m1 = 0.1", "value": "1501.3 ± 10", "unit": "m/s"},
      {"measurement": "speed of sound", "setting": "[2]; 298.15 K, m1 = 0.2", "value": "1504.5 ± 10", "unit": "m/s"},
      {"measurement": "mass density", "setting": "[2]; 298.15 K, m1 = 0.05", "value": "998.801 ± 10", "unit": "kg/m3"},
      {"measurement": "mass density", "setting": "[2]; 298.15 K, m1 = 0.1", "value": "1000.37 ± 10", "unit": "kg/m3"},
      {"measurement": "mass density", "setting": "[2]; 298.15 K, m1 = 0.2", "value": "1003.79 ± 10", "unit": "kg/m3"},
      {"measurement": "viscosity", "setting": "[2]; 303.15 K, m1 = 0.05", "value": "0.8379 ± 0.17", "unit": "mPa·s"},
      {"measurement": "viscosity", "setting": "[2]; 303.15 K, m1 = 0.1", "value": "0.8579 ± 0.17", "unit": "mPa·s"},
      {"measurement": "viscosity", "setting": "[2]; 303.15 K, m1 = 0.2", "value": "0.8904 ± 0.18", "unit": "mPa·s"},
      {"measurement": "speed of sound", "setting": "[2]; 303.15 K, m1 = 0.05", "value": "1514 ± 10", "unit": "m/s"},
      {"measurement": "speed of sound", "setting": "[2]; 303.15 K, m1 = 0.1", "value": "1516.3 ± 10", "unit": "m/s"},
      {"measurement": "speed of sound", "setting": "[2]; 303.15 K, m1 = 0.2", "value": "1519 ± 10", "unit": "m/s"},
      {"measurement": "mass density", "setting": "[2]; 303.15 K, m1 = 0.05", "value": "997.363 ± 10", "unit": "kg/m3"},
      {"measurement": "mass density", "setting": "[2]; 303.15 K, m1 = 0.1", "value": "998.824 ± 10", "unit": "kg/m3"},
      {"measurement": "mass density", "setting": "[2]; 303.15 K, m1 = 0.2", "value": "1002.6 ± 10", "unit": "kg/m3"},
      {"measurement": "viscosity", "setting": "[2]; 308.15 K, m1 = 0.05", "value": "0.7411 ± 0.15", "unit": "mPa·s"},
      {"measurement": "viscosity", "setting": "[2]; 308.15 K, m1 = 0.1", "value": "0.7624 ± 0.15", "unit": "mPa·s"},
      {"measurement": "viscosity", "setting": "[2]; 308.15 K, m1 = 0.2", "value": "0.7856 ± 0.16", "unit": "mPa·s"},
      {"measurement": "speed of sound", "setting": "[2]; 308.15 K, m1 = 0.05", "value": "1521.7 ± 10", "unit": "m/s"},
      {"measurement": "speed of sound", "setting": "[2]; 308.15 K, m1 = 0.1", "value": "1524.7 ± 10", "unit": "m/s"},
      {"measurement": "speed of sound", "setting": "[2]; 308.15 K, m1 = 0.2", "value": "1527.2 ± 10", "unit": "m/s"},
      {"measurement": "mass density", "setting": "[2]; 308.15 K, m1 = 0.05", "value": "995.711 ± 10", "unit": "kg/m3"},
      {"measurement": "mass density", "setting": "[2]; 308.15 K, m1 = 0.1", "value": "997.285 ± 10", "unit": "kg/m3"},
      {"measurement": "mass density", "setting": "[2]; 308.15 K, m1 = 0.2", "value": "1001.3 ± 10", "unit": "kg/m3"}
    ]},
    {"compound": "O", "note": "[water] + O=P([O-])([O-])O.[K+].[K+]", "values": [
      {"measurement": "viscosity", "setting": "[2]; 288.15 K, m2 = 0", "value": "1.043 ± 0.21", "unit": "mPa·s"},
      {"measurement": "viscosity", "setting": "[2]; 293.15 K, m2 = 0", "value": "0.9312 ± 0.19", "unit": "mPa·s"},
      {"measurement": "viscosity", "setting": "[2]; 298.15 K, m2 = 0", "value": "0.8319 ± 0.17", "unit": "mPa·s"},
      {"measurement": "viscosity", "setting": "[2]; 303.15 K, m2 = 0", "value": "0.7981 ± 0.16", "unit": "mPa·s"},
      {"measurement": "viscosity", "setting": "[2]; 308.15 K, m2 = 0", "value": "0.7202 ± 0.14", "unit": "mPa·s"}
    ]},
    {"compound": "O", "note": "[water] + O=P([O-])([O-])O.[Na+].[Na+]", "values": [
      {"measurement": "viscosity", "setting": "[2]; 288.15 K, m2 = 0", "value": "1.043 ± 0.21", "unit": "mPa·s"},
      {"measurement": "viscosity", "setting": "[2]; 293.15 K, m2 = 0", "value": "0.9312 ± 0.19", "unit": "mPa·s"},
      {"measurement": "viscosity", "setting": "[2]; 298.15 K, m2 = 0", "value": "0.8319 ± 0.17", "unit": "mPa·s"},
      {"measurement": "viscosity", "setting": "[2]; 303.15 K, m2 = 0", "value": "0.7981 ± 0.16", "unit": "mPa·s"},
      {"measurement": "viscosity", "setting": "[2]; 308.15 K, m2 = 0", "value": "0.7202 ± 0.14", "unit": "mPa·s"}
    ]}
  ]
}
